Data taken from publication PMC11173301, “On the Cholesterol Raising Effect of Coffee Diterpenes Cafestol and 16-O-Methylcafestol: Interaction with Farnesoid X Receptor” (International Journal of Molecular Sciences, 2024).

Biological target: T1, FXR-LBD (FXR-WT; stabilized mutant FXR-CCEE) (Homo sapiens, UniProt Q96RI1)
T1 construct: gene NR1H4; plasmid from Prof; Jinsong Liu; CCEE = C432E/C466E
T1 sequence (Q96RI1 225-472 isoform Q96RI1-2): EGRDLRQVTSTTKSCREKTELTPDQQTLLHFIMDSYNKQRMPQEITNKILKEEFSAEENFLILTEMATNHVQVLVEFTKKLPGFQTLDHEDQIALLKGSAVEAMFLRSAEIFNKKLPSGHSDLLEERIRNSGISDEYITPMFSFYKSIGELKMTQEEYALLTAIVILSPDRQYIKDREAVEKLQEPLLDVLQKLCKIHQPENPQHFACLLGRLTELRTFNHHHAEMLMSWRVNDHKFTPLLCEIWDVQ
Assay: intrinsic fluorescence titration, Stern-Volmer
Assay type: binding
Settings: […] protein, phosphate pH […] NaCl, […] glycerol, […] °C; no inner filter correction
Text: intrinsic fluorescence titration, Stern-Volmer on FXR-LBD (FXR-WT; stabilized mutant FXR-CCEE) | With GG, the numbers for the FXR-WT and the FXR-CCEE mutant were quite different

For `C/C=C1\C(=O)C[C@H]2[C@@H]3CCC4=CC(=O)CC[C@]4(C)[C@H]3CC[C@]12C` [guggulsterone], the “Stern-Volmer constant (KSV)” value was 33650 ± 5000 L/mol.
